Data on 3 compounds can be found in US11958859B2, “Use of pyridoxal acetal salts as water-triggered pro-fragrances” (Florida Gulf Coast University Board of Trustees, priority 2018, dated 2024).

A short description of data set [1]: Hydrolysis (acetal cleavage) of pyridoxal acetal salts in D2O/DMSO-d6, release of the alcohol monitored by time-dependent 1H NMR. Format: physicochemical. The settings on record: for release of alcohol from the respective pyridoxal acetal: 0.2 M, 30% D2O in DMSO-d6, after 22 hours. As to the method: The hydrolysis of the target alcohol from the pyridoxal acetal salt in the presence of D2O was monitored by ^1H NMR spectroscopy. This was accomplished by comparing the formation of hemiacetal C—H peak to the loss of the acetal C—H peak. For substrate 3a, the integration of the acetal C—H peak at 6.58 ppm was compared to the integration of the pyridoxal hemiacetal C—H peak at 6.41 ppm hourly to determine conversion. A stack plot of the NMR spectra for 50% D2O solution in DMSO-d6 over 20 hours is illustrated in FIG. 2.
To determine the kinetics of the hydrolysis with respect to the concentration of water, acetal 3a was exposed to varying concentrations of D2O The release of ethanol from 3a was measured at concentrations of 25%, 35%, 50%, and 100% D2O in DMSO-d6 and is plotted in FIG. 3. […] The 100% D2O trial provides full cleavage after 10 hours whereas a lowest concentration of D2O (25%) provides the slowest release at only 28% cleaved after 25 hours. The 50% D2O trial provided 74% release after 25 hours and the 35% D2O trial provided 42% release.
The rate of release for ethanol (blue), isopropanol (red), 2-phenylethanol (green), and geraniol (purple) were monitored at a 0.2 M concentration of 30% D2O in DMSO-d6 from the respective pyridoxal acetal. […] In all cases, the acetals hydrolyze to release the target molecule and pyridoxal HCl quantitatively. Since other fragrance delivery systems can lose material in side reactions (H. Q. N. Gunaratne et al., Chem. Commun., 2015, 51, 4455), the high fidelity in the release for these alcohols is significant.
The acetal cleavage was measured by comparing the integration of Ha to Hb whereas Hb/(Ha+Hb) provides the percent completion for the acetal cleavage for 3a and 3b. The stack plots in FIGS. 7-11 provide a visual counterpart to the graphs. 3c had some overlap between Ha and Hb so the fully separated methyl groups of the isopropyl were integrated instead.
3a (0.1636 mmol) was dissolved in 0.4 mL of DMSO-d6 (except for 100% D2O) and varying amounts of D2O were added, as shown in the table below (see corresponding stack plots in FIGS. 7-11).

As for `Cc1ncc2c(c1O)C(OCCc1ccccc1)OC2.Cl` (stereo not shown), the melting point is 168 to 172 °C.
In turn, `CCOC1OCc2cnc(C)c(O)c21.Cl` (stereo not shown) [3a, 1-ethoxy-7-hydroxy-6-methyl-1,3-dihydrofuro[3,4-c]pyridin-5-ium chloride] gave a melting point of 97 to 103 °C. The “release of alcohol from the respective pyridoxal acetal” value in data set [1] came to 35%. Moreover, the “acetal cleaved (release of ethanol)” value in data set [1] (25% D2O in DMSO-d6, after 25 hours) is given as 28%. Also, the “dependence of release rate on water concentration” value in data set [1] (25%, 35%, 50%, 100% D2O in DMSO-d6, FIG. 3) is given as “rate increases with higher concentrations of D2O”. For the same compound, in data set [1] (35% D2O in DMSO-d6 (time not restated; 25 hours implied)), the release of ethanol stood at 42%. In addition, the release of ethanol in data set [1] (50% D2O in DMSO-d6, after 25 hours) was 74%. For the same compound, in data set [1] (100% D2O, after 10 hours, 1H NMR), the “cleavage of acetal (release of ethanol)” value is reported as “full cleavage”.
`Cc1ncc2c(c1O)C(OC(C)C)OC2.Cl` (stereo not shown) [3c, 7-hydroxy-1-isopropoxy-6-methyl-1,3-dihydrofuro[3,4-c]pyridin-5-ium chloride] came in with a melting point of 116 to 121 °C. For the same compound, the “release of alcohol from the respective pyridoxal acetal” value in data set [1] was 37%.
